Like-named read-outs stand apart in the source and are kept apart here. Ends that are not written are not given here.
Key:
Type in all cases: cell-based
[1] = tested on: human alveolar basal epithelial adenocarcinoma cell lines (A549); settings: for Cell viability (%) of test cells: human, 48 h
Description: The antitumor activity of Sample 1 synthesized in the above Test Example 1 with respect to human-derived cultured tumor cells was evaluated. Currently commercially available human gastric cancer cell lines (FU97), human alveolar basal epithelial adenocarcinoma cell lines (A549), human breast cancer cell lines (MDA-MB-231), and human melanoma cell lines (A375) were prepared as test tumor cells. In addition, normal human mammary epithelial cell culture lines (MCF-12F) were prepared for comparison. An RPMI-1640 culture medium including 2 mM of L-glutamine, 1 mM of sodium pyruvate, 10 mM of HEPES, […] of glucose, 50 unit/mL of penicillin, 50 μg/mL of streptomycin, and 10% FBS (product, commercially available from Wako Pure Chemical Industries, Ltd.). The above five types of cell lines were cultured in respective designated culture solutions. The cell lines were cultured so that the number of cells per well in a 96-hole (well) plate was about 5×10^3. Here, an amount of the culture solution per well was 100 μL. The 96-well plate was then placed in a CO2 incubator. Then, pre-incubation was performed under conditions of 37° C. and 5% CO2 for about 1 day (about 23 hours). Then, regarding the culture solution for the peptide addition area, culture solutions containing Sample 1 for each concentration were prepared so that the concentration of Sample 1 was 6.25 μM, 12.5 μM or 25 μM and supplied to wells (that is, wells after the pre-incubation) in which 90 μL of cells to be evaluated were cultured in each well. On the other hand, regarding the culture solution for the comparative test area, a culture solution to which no Sample 1 was added was prepared, and supplied to wells (that is, wells after the pre-incubation) in which 90 μL of cells to be evaluated were cultured in each well. The 96-well plate was then placed in a CO2 incubator, and incubated under conditions of 37° C. and 5% CO2 for 48 hours. […] Then, the absorbance at a wavelength of 450 nm (value corrected by the absorbance at a wavelength of 620 nm: A450-A620) was measured based on the reduction of the tetrazolium salt in the culture solution. Then, the cell viability was calculated according to a colorimetric method. In the test areas (test areas 1 to 3) in the peptide addition area, the cell viability of each of the above five types of cell lines was calculated as a relative value when a measured value (measurement absorbance) of the comparative test area in the same cell lines was set as 100%. That is, regarding each of the above five types of cell lines, the cell viability (%) was calculated by dividing the measurement absorbance of the test areas (test areas 1 to 3) in the peptide addition area by the measurement absorbance of the comparative test area in the same cell lines and multiplying by 100.

in vitro = settings: human
Description: Currently commercially available human gastric cancer cell lines (FU97), human alveolar basal epithelial adenocarcinoma cell lines (A549), human breast cancer cell lines (MDA-MB-231), and human melanoma cell lines (A375) were prepared as test tumor cells. In addition, normal human mammary epithelial cell culture lines (MCF-12F) were prepared for comparison. A DMEM/F12 culture medium including 20 ng/mL of recombinant EGF, 10 μg/mL of insulin, 0.5 μg/mL of hydrocortisone, and 10% FBS (product, commercially available from Wako Pure Chemical Industries, Ltd.). The above five types of cell lines were cultured in respective designated culture solutions. The cell lines were cultured so that the number of cells per well in a 96-hole (well) plate was about 5×10^3. Here, an amount of the culture solution per well was 100 μL. The 96-well plate was then placed in a CO2 incubator. Then, pre-incubation was performed under conditions of 37° C. and 5% CO2 for about 1 day (about 23 hours). Then, regarding the culture solution for the peptide addition area, culture solutions containing Sample 1 for each concentration were prepared so that the concentration of Sample 1 was 6.25 μM, 12.5 μM or 25 μM and supplied to wells (that is, wells after the pre-incubation) in which 90 μL of cells to be evaluated were cultured in each well. On the other hand, regarding the culture solution for the comparative test area, a culture solution to which no Sample 1 was added was prepared, and supplied to wells (that is, wells after the pre-incubation) in which 90 μL of cells to be evaluated were cultured in each well. The 96-well plate was then placed in a CO2 incubator, and incubated under conditions of 37° C. and 5% CO2 for 48 hours. […] Then, the absorbance at a wavelength of 450 nm (value corrected by the absorbance at a wavelength of 620 nm: A450-A620) was measured based on the reduction of the tetrazolium salt in the culture solution. Then, the cell viability was calculated according to a colorimetric method. […]

[2] = tested on: tumor cells derived from non-human mammals; test: Antitumor activity on tumor cells derived from non-human mammals (data not shown); settings: detailed data not shown

In the case of “MACLGFQRHKAQLNLATRTWPCTLLFFLLFIPVFCKKRTLRKTDRKKR-NH2 (cysteines drawn unpaired) [Sample 1]”, the “Specific cell viability of test tumor cells” value ([1]; A549, 12.5 μM Sample 1, (cell viability of test tumor cells)/(cell viability of MCF-12F cells)×100) is reported as 36.0, the “Cell viability (%) of test cells” value ([1]; 6.25 μM) is reported as 64.7% and the “Cell viability (%) of test cells” value ([1]; 12.5 μM) is reported as 41.1%. For the same substance, the “Cell viability (%) of test cells” value ([1]; 25 μM) was 24.9%, the viability at 48 h, 6.25 μM (in vitro) was 130% and the viability at 48 h, 12.5 μM (in vitro) was 114%. For the same substance, the viability at 48 h, 25 μM (in vitro) was 82% and the “antitumor activity and tumor cell-selective antitumor activity” value [2] was “high antitumor activity and tumor cell-selective antitumor activity”.
